Experimental data taken from patent publication US10927123B2, “Modulators of the beta-3 adrenergic receptor useful for the treatment or prevention of disorders related thereto” (Arena Pharmaceuticals, Inc., priority 2016, dated 2021).

These compounds were tested against Beta-3 Adrenergic Receptor (Homo sapiens (Human), UniProt P13945) (assay: HTRF cAMP antagonist assay (IC50 determination)). Settings: CHO-K1 cells stably expressing recombinant receptor; antagonism of isoproterenol at EC90; cAMP readout.
Format: cell-based
In short: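 CHO-K1 cells stably expressing the recombinant receptor were preincubated with compound (10-point, 5-fold dilutions; top final typically 10 or 100 μM) in PBS with 1 mM IBMX, then stimulated with isoproterenol at its EC90 for 1 h at room temperature. cAMP was read by HTRF against an on-plate standard curve.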

Chain of Beta-3 Adrenergic Receptor (P13945 whole entry, species assumed): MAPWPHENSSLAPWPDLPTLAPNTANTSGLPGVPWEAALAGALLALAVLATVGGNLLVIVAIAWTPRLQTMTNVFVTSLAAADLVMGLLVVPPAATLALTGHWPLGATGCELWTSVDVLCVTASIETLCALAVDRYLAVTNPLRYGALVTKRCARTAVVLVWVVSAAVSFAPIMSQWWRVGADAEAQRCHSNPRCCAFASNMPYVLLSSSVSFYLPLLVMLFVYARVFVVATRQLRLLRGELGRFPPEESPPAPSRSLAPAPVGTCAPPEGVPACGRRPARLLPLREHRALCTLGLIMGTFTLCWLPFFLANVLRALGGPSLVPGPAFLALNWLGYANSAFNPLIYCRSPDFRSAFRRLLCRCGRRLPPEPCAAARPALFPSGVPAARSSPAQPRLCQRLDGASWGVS

For O=S(=O)(CCO)c1cccc(OC[C@@H](O)CN[C@H]2COC3(CCN(S(=O)(=O)c4cccc(-c5ncccc5F)c4)CC3)C2)c1 [Compound 126, (S)-1-((R)-8-(3-(3-fluoropyridin-2-yl)phenylsulfonyl)-1-oxa-8-azaspiro[4.5]decan-3-ylamino)-3-(3-(2-hydroxyethylsulfonyl)phenoxy)propan-2-ol], which IC50 is on record?
The IC50 was 0.127 µM.

CCOc1ccc(-c2ccc(CN)cc2)cc1S(=O)(=O)N1CCC2(CC1)C[C@H](NC[C@H](O)COc1cccc(S(=O)(=O)CC)c1)CO2 [Compound 226, (S)-1-((S)-8-(4′-(aminomethyl)-4-ethoxybiphenyl-3-ylsulfonyl)-1-oxa-8-azaspiro[4.5]decan-3-ylamino)-3-(3-(ethylsulfonyl)phenoxy)propan-2-ol] was tested. Which IC50 did it give?
The IC50 was 0.0125 µM.

How did the IC50 turn out when C[C@@H]1CN(C)c2cc(S(=O)(=O)N3CCC4(CC3)C[C@@H](NC[C@H](O)COc3cccc(S(=O)(=O)C5(CO)CC5)c3)CO4)cnc2O1 [Compound 283, (S)-1-((R)-8-((R)-1,3-dimethyl-2,3-dihydro-1H-pyrido[2,3-b][1,4]oxazin-7-ylsulfonyl)-1-oxa-8-azaspiro[4.5]decan-3-ylamino)-3-(3-(1-(hydroxymethyl)cyclopropylsulfonyl)phenoxy)propan-2-ol] was run?
The IC50 was 0.0689 µM.

How did the IC50 turn out when CS(=O)(=O)c1cccc(OC[C@@H](O)CN[C@H]2COC3(CCN(S(=O)(=O)c4cnc5ccccc5c4)CC3)C2)c1 [Compound 118, (S)-1-(3-(methylsulfonyl)phenoxy)-3-((R)-8-(quinolin-3-ylsulfonyl)-1-oxa-8-azaspiro[4.5]decan-3-ylamino)propan-2-ol] was run?
The IC50 was 0.0104 µM.

CN1CCOc2cc(S(=O)(=O)N3CCC4(CC3)C[C@@H](NC[C@H](O)COc3cccc(S(=O)(=O)C5(CO)CC5)c3)CO4)cnc21 [Compound 286, (S)-1-(3-(1-(hydroxymethyl)cyclopropylsulfonyl)phenoxy)-3-((R)-8-(4-methyl-3,4-dihydro-2H-pyrido[3,2-b][1,4]oxazin-7-ylsulfonyl)-1-oxa-8-azaspiro[4.5]decan-3-ylamino)propan-2-ol] was tested. Which IC50 did it give?
The IC50 was 0.0569 µM.

CC(F)S(=O)(=O)c1cccc(OC[C@@H](O)CN[C@H]2COC3(CCN(S(=O)(=O)c4cnc5ccccc5c4)CC3)C2)c1 (stereo partly drawn) [Compound 233, (2S)-1-(3-(1-fluoroethylsulfonyl)phenoxy)-3-((R)-8-(quinolin-3-ylsulfonyl)-1-oxa-8-azaspiro[4.5]decan-3-ylamino)propan-2-ol] was tested. Which IC50 did it give?
Its IC50 is 0.00972 µM.

How did the IC50 turn out when NCc1ccc(-c2cccc(S(=O)(=O)N3CCC4(CC3)C[C@@H](NC[C@H](O)COc3cccc(S(=O)(=O)C5CC5)c3)CO4)c2)cc1 [Compound 189, (S)-1-((R)-8-(4′-(aminomethyl)biphenyl-3-ylsulfonyl)-1-oxa-8-azaspiro[4.5]decan-3-ylamino)-3-(3-(cyclopropylsulfonyl)phenoxy)propan-2-ol] was run?
Its IC50 is 0.0103 µM.

How did the IC50 turn out when CS(=O)(=O)c1cccc(OC[C@@H](O)CNC2COC3(CCN(S(=O)(=O)c4cccnc4)CC3)C2)c1 (stereo partly drawn) [Compound 46, (2S)-1-(3-(methylsulfonyl)phenoxy)-3-(8-(pyridin-3-ylsulfonyl)-1-oxa-8-azaspiro[4.5]decan-3-ylamino)propan-2-ol] was run?
The IC50 was 0.087 µM.

With C[C@H]1CN(C)c2cc(S(=O)(=O)N3CCC4(CC3)C[C@@H](NC[C@H](O)COc3cccc(S(=O)(=O)C5CC5)c3)CO4)cnc2O1 [Compound 274, (S)-1-(3-(cyclopropylsulfonyl)phenoxy)-3-((R)-8-((S)-1,3-dimethyl-2,3-dihydro-1H-pyrido[2,3-b][1,4]oxazin-7-ylsulfonyl)-1-oxa-8-azaspiro[4.5]decan-3-ylamino)propan-2-ol] as the compound, how does the IC50 read?
Its IC50 is 0.0384 µM.

With CS(=O)(=O)c1cccc(OC[C@@H](O)CNC2COC3(CCN(S(=O)(=O)c4cccc(-c5cnn(C6CC6)c5)c4)CC3)C2)c1 (stereo partly drawn) [Compound 39, (2S)-1-(8-(3-(1-cyclopropyl-1H-pyrazol-4-yl)phenylsulfonyl)-1-oxa-8-azaspiro[4.5]decan-3-ylamino)-3-(3-(methylsulfonyl)phenoxy)propan-2-ol] as the compound, how does the IC50 read?
The IC50 was 0.0708 µM.

Which IC50 does the source give for CS(=O)(=O)c1cccc(OC[C@@H](O)CN[C@H]2COC3(CCN(S(=O)(=O)c4ccc5ccccc5c4)CC3)C2)c1 [Compound 3, (S)-1-(3-(methylsulfonyl)phenoxy)-3-((R)-8-(naphthalen-2-ylsulfonyl)-1-oxa-8-azaspiro[4.5]decan-3-ylamino)propan-2-ol] here?
Its IC50 is 0.00547 µM.

O=S(=O)(c1ccc2ncccc2c1)N1CCC2(CC1)C[C@@H](NC[C@H](O)COc1cccc(S(=O)(=O)C(F)(F)CO)c1)CO2 [Compound 148, (S)-1-(3-(1,1-difluoro-2-hydroxyethylsulfonyl)phenoxy)-3-((R)-8-(quinolin-6-ylsulfonyl)-1-oxa-8-azaspiro[4.5]decan-3-ylamino)propan-2-ol] was tested. Which IC50 did it give?
The IC50 was 0.0218 µM.

Which IC50 does the source give for CS(=O)(=O)c1ccc(OC[C@@H](O)CNC2COC3(CCN(S(=O)(=O)c4ccc5ccccc5c4)CC3)C2)cc1 (stereo partly drawn) [Compound 334, (2S)-1-(4-(methylsulfonyl)phenoxy)-3-(8-(naphthalen-2-ylsulfonyl)-1-oxa-8-azaspiro[4.5]decan-3-ylamino)propan-2-ol] here?
Its IC50 is 0.0799 µM.

For CS(=O)(=O)c1cccc(OC[C@@H](O)CNC2COC3(CCN(S(=O)(=O)c4ccc5cc(Cl)ccc5c4)CC3)C2)c1 (stereo partly drawn) [Compound 73, (2S)-1-(8-(6-chloronaphthalen-2-ylsulfonyl)-1-oxa-8-azaspiro[4.5]decan-3-ylamino)-3-(3-(methylsulfonyl)phenoxy)propan-2-ol], which IC50 is on record?
Its IC50 is 0.0239 µM.

How did the IC50 turn out when O=S(=O)(c1cccc(OC[C@@H](O)CN[C@H]2COC3(CCN(S(=O)(=O)c4ccc5ncccc5c4)CC3)C2)c1)C1CC1 [Compound 143, (S)-1-(3-(cyclopropylsulfonyl)phenoxy)-3-((R)-8-(quinolin-6-ylsulfonyl)-1-oxa-8-azaspiro[4.5]decan-3-ylamino)propan-2-ol] was run?
Its IC50 is 0.0132 µM.

Which IC50 does the source give for CCOc1ccc(-c2ccc(CN)cc2)cc1S(=O)(=O)N1CCC2(CC1)C[C@H](NC[C@H](O)COc1cccc(S(C)(=O)=O)c1F)CO2 [Compound 209, (S)-1-((S)-8-(4′-(aminomethyl)-4-ethoxybiphenyl-3-ylsulfonyl)-1-oxa-8-azaspiro[4.5]decan-3-ylamino)-3-(2-fluoro-3-(methylsulfonyl)phenoxy)propan-2-ol] here?
Its IC50 is 0.00879 µM.

COCCN1CCOc2ncc(S(=O)(=O)N3CCC4(CC3)C[C@@H](NC[C@H](O)COc3cccc(S(=O)(=O)C5CC5)c3)CO4)cc21 [Compound 304, (S)-1-(3-(cyclopropylsulfonyl)phenoxy)-3-((R)-8-(1-(2-methoxyethyl)-2,3-dihydro-1H-pyrido[2,3-b][1,4]oxazin-7-ylsulfonyl)-1-oxa-8-azaspiro[4.5]decan-3-ylamino)propan-2-ol] was tested. Which IC50 did it give?
Its IC50 is 0.069 µM.

With CCS(=O)(=O)c1cccc(OC[C@@H](O)CN[C@H]2COC3(CCN(S(=O)(=O)c4ccc(OC)c(-c5ccc(C6(N)CC6)cc5)c4)CC3)C2)c1 [Compound 258, (S)-1-((R)-8-(4′-(1-aminocyclopropyl)-6-methoxybiphenyl-3-ylsulfonyl)-1-oxa-8-azaspiro[4.5]decan-3-ylamino)-3-(3-(ethylsulfonyl)phenoxy)propan-2-ol] as the compound, how does the IC50 read?
The IC50 was 0.0277 µM.

How did the IC50 turn out when CS(=O)(=O)c1cccc(OC[C@@H](O)CNC2COC3(CCN(S(=O)(=O)c4ccc5c(c4)CCCC5)CC3)C2)c1 (stereo partly drawn) [Compound 29, (2S)-1-(3-(methylsulfonyl)phenoxy)-3-(8-(5,6,7,8-tetrahydronaphthalen-2-ylsulfonyl)-1-oxa-8-azaspiro[4.5]decan-3-ylamino)propan-2-ol] was run?
The IC50 was 0.0161 µM.
